According to patent publication US20230255884A1, “FINISHED FIBROUS SRUCTURES AND METHODS OF THEIR USE AND PREPARATION” (CLEXIO BIOSCIENCES LTD., priority 2019, published 2023):
Where a name gives a salt, the structure may show the parent alone.

How the values were obtained:
[1] = Example 16: diclofenac in the mother liquor by HPLC; type: physicochemical
[2] = Example 16: % Add on of diclofenac compositions (10% Diclofenac sodium salt, 10% PEG 400, 10% propylene glycol, 2% Polysorbate 80), 60° C., 1 h, squeezed; type: physicochemical
Protocol: The samples were then removed from their vessels, squeezed, weighed and left to dry overnight at room temperature before their dry weight and percentage Add on were determined.

SMILES: O=C(O)Cc1ccccc1Nc1c(Cl)cccc1Cl [Diclofenac, Diclofenac sodium salt]
- diclofenac concentration in the mother liquor ([1]; ethanol based liquor): 90.76 mg/g
- diclofenac concentration in the mother liquor ([1]; water based liquor): 93.68 mg/g
- % Add on ([2]; NaOH 1 drop, pH 13.2): 32.0%
- % Add on ([2]; NaOH 1 drop, pH 14.0): 46.0%
- % Add on ([2]; ethanol 13.6% (w/w), no NaOH, pH 8.3): 44.1%
- % Add on ([2]; no ethanol, no NaOH, pH 8.5): 42.2%
